Measured values taken from US20250368624A1, “M24B AMINOPEPTIDASE INHIBITORS FOR CARD8 INFLAMMASOME ACTIVATION” (Memorial Sloan-Kettering Cancer Center, priority 2022, published 2025).

How the values were obtained:
recombinant human PEPD = recombinant human PEPD (Homo sapiens (Human), UniProt P12955); experiment: PEPD substrate assay (Ala-Pro cleavage, L-alanine assay kit); format: biochemical; details: for IC50: 50 nM recombinant human PEPD, Ala-Pro 40 μM, 25° C.
XPNPEP1 = XPNPEP1 (Homo sapiens (Human), UniProt Q9NQW7); experiment: XPNPEP1 substrate assay (H-Lys(abz)-Pro-Pro-pNA); format: biochemical; details: for IC50: XPNPEP1 3.5 nM, substrate 100 μM, 60 mins
Sequence of XPNPEP1 (Q9NQW7 whole entry): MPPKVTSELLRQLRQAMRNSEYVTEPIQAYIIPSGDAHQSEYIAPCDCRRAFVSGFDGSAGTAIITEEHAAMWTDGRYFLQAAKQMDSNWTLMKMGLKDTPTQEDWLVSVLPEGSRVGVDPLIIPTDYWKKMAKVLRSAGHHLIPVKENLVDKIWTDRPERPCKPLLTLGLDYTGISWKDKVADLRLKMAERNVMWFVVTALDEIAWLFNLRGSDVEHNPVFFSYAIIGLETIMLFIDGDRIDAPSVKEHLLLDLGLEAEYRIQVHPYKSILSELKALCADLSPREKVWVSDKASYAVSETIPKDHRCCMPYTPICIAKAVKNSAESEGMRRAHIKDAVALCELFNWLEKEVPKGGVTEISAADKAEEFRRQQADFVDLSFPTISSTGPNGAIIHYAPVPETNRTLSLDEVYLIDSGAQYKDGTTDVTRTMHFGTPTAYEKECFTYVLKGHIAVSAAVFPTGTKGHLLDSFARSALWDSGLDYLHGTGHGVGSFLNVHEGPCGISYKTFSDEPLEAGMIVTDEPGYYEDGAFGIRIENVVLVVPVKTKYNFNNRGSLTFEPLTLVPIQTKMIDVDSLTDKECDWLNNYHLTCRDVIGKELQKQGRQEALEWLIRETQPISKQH

[1] = Stability in cell culture supernatants; format: in vitro ADME; details: cell culture supernatants
[2] = De-esterification in cell culture; format: in vitro ADME; details: after 24 h
OCI-AML2 cells = experiment: Propidium iodide uptake, OCI-AML2 cells; format: cell-based; details: 6.25 μM, compared to CQ31
Protocol: Propidium iodideflux analysis. 2×10^4 MV4;11 or OCI-AML2 cells were plated in 384-well, black, clear-bottom plate (Corning) in RPMI medium. Cells were then treated as indicated and propidium iodide (PI) was added at a final concentration of 10 μM. PI fluorescence was measured at (Ex/Em: 535/617 nm) recorded at 37° C. every 5 mins in a Cytation 5 Cell Imaging Multi-Mode Reader (BioTek). The obtained measurements were baseline corrected to vehicle/DMSO and normalized to maximum response.

Sequence of recombinant human PEPD (P12955 whole entry): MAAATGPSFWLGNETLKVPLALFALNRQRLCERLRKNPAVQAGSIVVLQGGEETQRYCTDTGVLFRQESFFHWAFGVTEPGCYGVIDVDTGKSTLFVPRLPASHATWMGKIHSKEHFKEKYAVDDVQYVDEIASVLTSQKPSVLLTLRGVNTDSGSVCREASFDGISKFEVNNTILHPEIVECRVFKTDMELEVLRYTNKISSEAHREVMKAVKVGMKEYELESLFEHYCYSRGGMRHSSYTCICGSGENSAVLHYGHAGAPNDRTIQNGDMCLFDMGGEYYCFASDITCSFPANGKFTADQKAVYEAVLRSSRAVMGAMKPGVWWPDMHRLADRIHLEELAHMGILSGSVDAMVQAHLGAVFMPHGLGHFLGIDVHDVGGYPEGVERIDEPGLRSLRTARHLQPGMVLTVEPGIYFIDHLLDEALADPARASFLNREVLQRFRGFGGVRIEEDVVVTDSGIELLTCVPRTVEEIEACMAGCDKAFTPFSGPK

In the case of COC(=O)[C@@H]1CCCN1C(=O)[C@@H](O)[C@H](N)CC(C)C [CQ31], the “PEPD inhibition (in words)” value (recombinant human PEPD) is reported as “inhibited PEPD and XPNPEP1 inhibitors similarly”, the IC50 (recombinant human PEPD) is reported as 0.67 µM and the “XPNPEP1 inhibition (in words)” value (XPNPEP1) is reported as “inhibited PEPD and XPNPEP1 inhibitors similarly”. The IC50 (XPNPEP1) was 122 µM, the “time to conversion to CQ04” value [1] was ≤ 30 min and the “de-esterification to CQ04 in cell culture” value [2] was “completely de-esterified”.
For COC(=O)[C@H](CC(C)C)NC(=O)[C@@H]1CCCN1C(=O)[C@@H](O)[C@H](N)CC(C)C [CQ80, Methyl ((2S,3R)-3-amino-2-hydroxy-5-methylhexanoyl)-L-prolyl-L-leucinate], the IC50 (recombinant human PEPD) was 0.91 µM, the IC50 (XPNPEP1) was 43 µM and the “lytic cell death by uptake of propidium iodide” value (OCI-AML2 cells) was “more rapid lytic cell death”. For the same compound, the “remained intact after 24 h” value ([1]; 24 h) was ~50%.
